Data on 2 molecules can be found in PMC10401705, “Imaging Saturation Transfer Difference (STD) NMR: Affinity and Specificity of Protein–Ligand Interactions from a Single NMR Sample” (Journal of the American Chemical Society, 2023).

Experiment [1] has as its target T1, bovine serum albumin (BSA) (Bos taurus, UniProt P02769).
T1 construct: gene ALB
The experiment in a line: imaging STD NMR, initial slopes (STD-AF0), Langmuir fit. In kind it is binding.

For experiment [2], the target named is T2, wheat germ agglutinin (WGA).
T2 construct: gene WGA1
Described as above. Type of experiment: binding, Triticum aestivum.

Molecules are shown by their SMILES.

T1 sequence (P02769 25-607): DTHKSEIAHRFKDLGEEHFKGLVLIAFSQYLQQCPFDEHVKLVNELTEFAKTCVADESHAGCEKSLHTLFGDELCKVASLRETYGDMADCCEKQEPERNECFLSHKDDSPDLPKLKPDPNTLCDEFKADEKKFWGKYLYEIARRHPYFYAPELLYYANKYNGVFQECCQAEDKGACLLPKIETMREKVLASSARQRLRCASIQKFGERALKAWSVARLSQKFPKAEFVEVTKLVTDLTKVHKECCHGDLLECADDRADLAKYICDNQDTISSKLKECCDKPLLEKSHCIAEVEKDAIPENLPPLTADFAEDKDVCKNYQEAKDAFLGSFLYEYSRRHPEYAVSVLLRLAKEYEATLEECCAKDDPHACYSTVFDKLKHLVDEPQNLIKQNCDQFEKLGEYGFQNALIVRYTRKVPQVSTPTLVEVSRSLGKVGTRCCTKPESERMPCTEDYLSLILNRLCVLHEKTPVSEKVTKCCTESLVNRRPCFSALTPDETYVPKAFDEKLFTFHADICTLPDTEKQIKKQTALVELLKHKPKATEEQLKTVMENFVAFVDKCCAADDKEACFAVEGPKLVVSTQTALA

Turning to `N[C@@H](Cc1c[nH]c2ccccc12)C(=O)O` [tryptophan], in experiment [1], the Kd was determined as 231 ± 50 µM.

In the case of `CC(=O)N[C@H]1C(O)O[C@H](CO)[C@@H](O)[C@@H]1O` (some centres unmarked) [GlcNAc], in experiment [2], the Kd came to 2240 ± 180 µM.

One may read the Kd as a measure of binding affinity in units of concentration. Low readings indicate higher affinity, high ones lower affinity.
